{"source": "patent US20080176266A1", "about": "“Biomarkers Of Metabolic Responses To Hepatotoxicants And Carcinogens” (priority 2006, published 2008)", "key": {"[1]": {"test_system": "Sprague Dawley rats", "test": "Liver-to-body weight ratio (LBR), F-tests", "format": "in vivo, rat", "details": "Day 14 animals, with time and with dose, not the interaction of dose-time", "text": "Liver hypertrophy is a well-known clinical end-point of chronic clofibrate exposure, however, the biomarkers of this pathology are unknown. Using the measurements of the liver weight and the body weight of the animals, we calculated the liver-to-body weight ratio (LBR). […] Second, we discovered the components that could classify the LBR in the liver and in the serum. This was accomplished out using a step wise regression method with the LBR as the response variable and all of the components as independent variables. After an iterative selection procedure, 29 of the best components from the serum and the liver were used to build the reduced model given below: […]"}, "[2]": {"test_system": "DNA", "details": "short term treatment; Gonzalez et al. (1998); cited from earlier work"}, "[3]": {"test_system": "Sprague Dawley rats", "test": "Liver enzymes ALT and AST in serum", "format": "in vivo", "details": "rat serum, 0, 50, 250 mg/kg, any groups", "description": "(§1) In detail, a single dose of clofibrate or vehicle was administered by gavage (0, 50 and 250 mg/kg) to groups of 18 male Sprague Dawley rats at 11 wks age. Six rats per dose group were euthanized at 6 and 24 h post-dose. Serum (for metabolomics and alanine aminotransferase (ALT), and aspartate aminotransferase (AST)), liver lobes (for histology), and frozen liver and urine (for metabolomics) were collected. Six rats per dose group were placed in metabolism cages for urine collection at −24-0 h, 0-6 h, 6-24 h and 24-48 h. These rats were removed from metabolism cages at 48 h post-dose, for blood and liver collection. The detailed study design is set forth in Chart 1."}, "[4]": {"test_system": "Sprague Dawley rats", "test": "GC-MS metabolomics of liver from rats exposed to clofibrate", "format": "in vivo", "details": "rat liver, 250 mg/kg/d", "description": "In one embodiment, the hepatotoxicant is clofibrate. Clofibrate or vehicle is administered orally (0, 50, 250 mg/kg/d) to groups of 6 rats and serum and livers are collected 6 and 24 h after either a single or 14 daily doses. Global biochemical profiles are determined by LC-MS and GC-MS and components highly perturbed by clofibrate exposure are identified by the methods described above. […] Rats (6 per group) were dosed by gavage with vehicle, 50 or 250 mg/kg clofibrate per day for 1 (single dose) or 14 days (repeated dose). These groups are referred to as “day 1” and ‘day 14 (d 1 and d14).” Liver and serum were collected at 6 and 24 h post-dosing in the day 1 and day 14. In detail, a single dose of clofibrate or vehicle was administered by gavage (0, 50 and 250 mg/kg) to groups of 18 male Sprague Dawley rats at 11 wks age. Six rats per dose group were euthanized at 6 and 24 h post-dose. Serum (for metabolomics and alanine aminotransferase (ALT), and aspartate aminotransferase (AST)), liver lobes (for histology), and frozen liver and urine (for metabolomics) were collected. Six rats per dose group were placed in metabolism cages for urine collection at −24-0 h, 0-6 h, 6-24 h and 24-48 h. These rats were removed from metabolism cages at 48 h post-dose, for blood and liver collection. The detailed study design is set forth in Chart 1. For GC-MS, liver was extracted with CHCl3:MeOH mixtures. Organic residue was derivitized with BSTFA and dried aqueous residues were derivitized with methoxyamine HCl/BSTFA. Samples were injected with 10:1 split into an Agilent 6890 gas chromatograph. A Leco Pegasus III TOFMS was used. Ions were generated at 70 eV with 3.2 mA ionization current; 25 spectra/s were recorded for 60-800 m/z. Acceleration voltage activated after 180 s solvent delay. Detector voltage: 1750 V. Data were processed with Leco ChromaTOF software. Automatic peak detection and mass spectrum deconvolution were performed using 1.33 s peak width. Peaks with S/N less than 20 were rejected. Component identification was accomplished with the NIST 98' MS library and, in some cases, verified with standards. Components with similarity greater than 600 were used for analysis."}, "[5]": {"test_system": "rats", "details": "cited from earlier work"}, "[6]": {"test_system": "Sprague Dawley rats", "test": "Liver histology", "format": "in vivo", "details": "rat liver", "description": "as §1, with “In detail, a single dose of clofibrate or vehicle was administered by gavage (0, 50 and 250 mg/kg) to groups of 18 male Sprague Dawley rats at 11 wks age.” left out"}}, "note": "Marks after values point to notes of the source that are not given here.", "data": [{"smiles": "CCOC(=O)C(C)(C)Oc1ccc(Cl)cc1", "note": "[clofibrate, ethyl-p-chloro-phenoxyisobutyrate]", "values": [{"measurement": "Liver-to-body weight ratio (LBR)", "setting": "[1]", "value": "significantly increased"}, {"measurement": "DNA adducts", "setting": "[2]", "value": "no DNA adducts have been observed"}, {"measurement": "ALT", "setting": "[3]", "value": "not elevated"}, {"measurement": "AST", "setting": "[3]", "value": "not elevated"}, {"measurement": "Hepatic 1-Mono linoleoylglycerol (fold change)", "setting": "[4]; Day 1, 6 H", "value": "1.11*** fold change"}, {"measurement": "Hepatic 1-Mono oleoylglycerol (fold change)", "setting": "[4]; Day 1, 6 H", "value": "0.98* fold change"}, {"measurement": "Hepatic 1-Mono palmitoylglycerol (fold change)", "setting": "[4]; Day 1, 6 H", "value": "0.91** fold change"}, {"measurement": "Hepatic 2-Mono oleoylglycerol (fold change)", "setting": "[4]; Day 1, 6 H", "value": "1.12*** fold change"}, {"measurement": "Hepatic Cholesterol (fold change)", "setting": "[4]; Day 1, 6 H", "value": "1.34*** fold change"}, {"measurement": "Hepatic Glucose (aq) (fold change)", "setting": "[4]; Day 1, 6 H", "value": "0.29* fold change"}, {"measurement": "Hepatic Glycine (fold change)", "setting": "[4]; Day 1, 6 H", "value": "2.69** fold change"}, {"measurement": "Hepatic Lactic acid (fold change)", "setting": "[4]; Day 1, 6 H", "value": "1.56** fold change"}, {"measurement": "Hepatic Linoleic acid (fold change)", "setting": "[4]; Day 1, 6 H", "value": "0.97* fold change"}, {"measurement": "Hepatic Palmitate (fold change)", "setting": "[4]; Day 1, 6 H", "value": "0.95*** fold change"}, {"measurement": "Hepatic Stearate (fold change)", "setting": "[4]; Day 1, 6 H", "value": "1.07* fold change"}, {"measurement": "Hepatic 1-Mono stearoylglycerol (fold change)", "setting": "[4]; Day 1, 24 H", "value": "17.14** fold change"}, {"measurement": "Hepatic Glycerol 1(3)-phosphate (fold change)", "setting": "[4]; Day 1, 24 H", "value": "2.56* fold change"}, {"measurement": "Hepatic Glycine (fold change)", "setting": "[4]; Day 1, 24 H", "value": "3.42* fold change"}, {"measurement": "Hepatic L-Aspartic acid (fold change)", "setting": "[4]; Day 1, 24 H", "value": "27.88*** fold change"}, {"measurement": "Hepatic Lactic acid (fold change)", "setting": "[4]; Day 1, 24 H", "value": "4.41* fold change"}, {"measurement": "Hepatic Succinic acid (Butanedioic acid) (fold change)", "setting": "[4]; Day 1, 24 H", "value": "17.05** fold change"}, {"measurement": "Hepatic l-Alanine (fold change)", "setting": "[4]; Day 1, 24 H", "value": "4.74* fold change"}, {"measurement": "Hepatic 1-Mono palmitoylglycerol (fold change)", "setting": "[4]; Day 14, 6 H", "value": "0.04** fold change"}, {"measurement": "Hepatic 1-Mono stearoylglycerol (fold change)", "setting": "[4]; Day 14, 6 H", "value": "0.22** fold change"}, {"measurement": "Hepatic 2-Mono stearoylglycerol (fold change)", "setting": "[4]; Day 14, 6 H", "value": "0.41* fold change"}, {"measurement": "Hepatic Arachidonic acid (fold change)", "setting": "[4]; Day 14, 6 H", "value": "0.22*** fold change"}, {"measurement": "Hepatic Cholesterol (fold change)", "setting": "[4]; Day 14, 6 H", "value": "1.87** fold change"}, {"measurement": "Hepatic Malate (fold change)", "setting": "[4]; Day 14, 6 H", "value": "0.1** fold change"}, {"measurement": "Hepatic Palmitate (fold change)", "setting": "[4]; Day 14, 6 H", "value": "0.72** fold change"}, {"measurement": "Hepatic β-Sitosterol (fold change)", "setting": "[4]; Day 14, 6 H", "value": "0.37** fold change"}, {"measurement": "Hepatic Cholesterol (fold change)", "setting": "[4]; Day 14, 24 H", "value": "0.69** fold change"}, {"measurement": "Hepatic Docosahexaenoic acid (fold change)", "setting": "[4]; Day 14, 24 H", "value": "0.58* fold change"}, {"measurement": "Hepatic Glucose (aq) (fold change)", "setting": "[4]; Day 14, 24 H", "value": "0.39** fold change"}, {"measurement": "Hepatic Malate (fold change)", "setting": "[4]; Day 14, 24 H", "value": "0.33** fold change"}, {"measurement": "Hepatic β-Sitosterol (fold change)", "setting": "[4]; Day 14, 24 H", "value": "0.46* fold change"}, {"measurement": "Clofibrate metabolite Propanoic acid, 2-(4-chlorophenoxy)-2-methyl- detected in liver", "setting": "[4]; GC-MS", "value": "(not present in control)"}, {"measurement": "Microscopic changes to liver", "setting": "[5]; 24 h after a single exposure", "value": "no microscopic changes"}, {"measurement": "Liver histopathology", "setting": "[5]; after 2 weeks", "value": "induced hypertrophy"}, {"measurement": "Histology: hepatocellular cytologic alterations", "setting": "[6]; after 14 doses at 250 mg/kg/day, all time points", "value": "hepatocellular cytologic alterations (indicating loss of glycogen and eosinophilic granular cytoplasm) were noted"}, {"measurement": "Histology: hepatocellular mitotic figures", "setting": "[6]; after a single dose, 50 to 250 mg/kg", "value": "dose related increase and severity of hepatocellular mitotic figures"}]}]}
